From US7446177B2, “Uses of DC-SIGN and DC-SIGNR for inhibiting hepatitis C virus infection” (Progenics Pharmaceuticals, Inc., priority 2001, dated 2008)
“Also recorded” adds a separate entry of the source.

Assays:
[1] = biological target: T1, HCV-E2 binding to DC-SIGN-R (Homo sapiens, UniProt Q9H2X3); conditions: HeLa-DC-SIGN-R cells, 20 beads/cell; mannan 20 ug/ml, antibodies 0.1-10 ug/ml, EDTA or EGTA 5 mM
T1 construct: E2 from Accurate Chemicals, NY Item # 6749; E2 produced in CHO cells
Experimental: (§1) Carboxylate-modified FluoSpheres® NeutrAvidin™ labeled microspheres (505/515 nm, 1.0 um; Molecular Probes, Eugene, Oreg.) were coated with HCV E2 glycoprotein as described for ICAM-1 beads (Geijtenbeek et al, Blood, 94, 754-764 (1999)). Briefly, NeutrAvidin™-coated beads were sonicated, and washed in PBS/BSA (0.5%). Beads were incubated with biotinylated-Sp-conjugated AffiniPure F(ab′)2 goat anti-mouse IgG F(ab′)2 fragment specific (6 ug/ml in PBS/BSA (0.5%); Jackson Immunoresearch Laboratories, Inc., West Grove, Pa.) for 2 hours at 37° C. After washing, beads were incubated with mouse anti-E2 antibodies (6 ug/ml in PBS/BSA (0.5%)) at 4° C. overnight. The beads were washed and incubated with 250 ng/ml purified HCV E2 produced in CHO cells (Accurate Chemicals, NY) overnight at 4° C.
(§2) This was performed as described by Geijtenbeek et al, (Blood, 94, 754-764 (1999)), with modifications. Cells were removed from culture by cell dissociation solution (Sigma) for 5 minutes at 37° C. and washed three times in adhesion buffer (20 mM Tris-HCl [pH 8.0], 150 mM NaCl, 1 mM CaCl2, 2 mM MgCl2, and 0.5% BSA). Cells were resuspended at a final concentration of 5×10^6 cells/ml in adhesion buffer for 30 minutes at 4° C. to recharge Ca2+ levels. Cells ([…]) were preincubated with mannan (20 ug/ml; Sigma), antibodies (0.1-10 ug/ml), EDTA (5 mM) or EGTA (5 mM) for 10 minutes at room temperature. HCV-E2-coated fluorescent beads (20 beads/cell) were added, and the suspension incubated for 30 minutes at 37° C. Adhesion was determined by measuring the percentage of cells that bound fluorescent beads by flow cytometry using a FACSca (Becton Dickinson, Oxnard, Calif.).
(§3) To determine whether DC-SIGN and DC-SIGN-R bind to HCV-E2 glycoproetin, a flow cytometric adhesion assay (Geijtenbeek et al, Blood, 94, 754-764 (1999)) was adapted. HCV-E2 protein produced in CHO cells was captured on fluorescent beads using a panel of anti-E2 mAbs, which were incubated with DC-SIGN- and DC-SIGN-R-HeLa cells at a ratio of 20 beads per cell.

[2] = biological target: T2, HCV-E2 binding to DC-SIGN (Homo sapiens, UniProt Q9NNX6); conditions: HeLa-DC-SIGN cells, 20 beads/cell; mannan 20 ug/ml, antibodies 0.1-10 ug/ml, EDTA or EGTA 5 mM
T2 construct: E2 from Accurate Chemicals, NY Item # 5444; E2 produced in CHO cells
Experimental: as §1, §2, §3

T1 sequence (Q9H2X3 whole entry): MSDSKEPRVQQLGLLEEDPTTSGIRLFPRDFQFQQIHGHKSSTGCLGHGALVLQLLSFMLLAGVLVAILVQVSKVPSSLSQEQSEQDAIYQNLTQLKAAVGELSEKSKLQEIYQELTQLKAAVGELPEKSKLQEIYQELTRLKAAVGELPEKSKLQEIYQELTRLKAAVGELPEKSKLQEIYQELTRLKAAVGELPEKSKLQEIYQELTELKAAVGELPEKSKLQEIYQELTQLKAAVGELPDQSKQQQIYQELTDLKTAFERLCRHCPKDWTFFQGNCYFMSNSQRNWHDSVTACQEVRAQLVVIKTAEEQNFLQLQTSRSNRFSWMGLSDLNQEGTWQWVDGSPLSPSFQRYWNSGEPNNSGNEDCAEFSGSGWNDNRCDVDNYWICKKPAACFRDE
T2 sequence (Q9NNX6 whole entry): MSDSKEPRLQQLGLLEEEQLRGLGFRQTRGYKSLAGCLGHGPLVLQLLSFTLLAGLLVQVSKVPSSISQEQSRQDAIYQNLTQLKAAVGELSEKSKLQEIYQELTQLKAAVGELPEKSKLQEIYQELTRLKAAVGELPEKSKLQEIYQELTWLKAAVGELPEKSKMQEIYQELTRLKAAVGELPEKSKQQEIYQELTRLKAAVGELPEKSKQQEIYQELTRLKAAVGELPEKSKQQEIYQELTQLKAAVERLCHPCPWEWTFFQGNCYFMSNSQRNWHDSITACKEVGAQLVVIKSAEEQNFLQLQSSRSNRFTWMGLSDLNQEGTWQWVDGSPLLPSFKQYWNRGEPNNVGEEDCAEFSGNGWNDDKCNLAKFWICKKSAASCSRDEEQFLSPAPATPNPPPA

Compound | Inhibition of adhesion of HCV-E2-coated beads to DC-SIGN-R [1] | Inhibition of adhesion of HCV-E2-coated beads to DC-SIGN [2]
O=C(O)CN(CCN(CC(=O)O)CC(=O)O)CC(=O)O [EDTA] | efficiently inhibited | efficiently inhibited
O=C(O)CN(CCOCCOCCN(CC(=O)O)CC(=O)O)CC(=O)O [EGTA] | efficiently inhibited | efficiently inhibited
mannan | inhibit; also recorded: efficiently inhibited; also recorded: blocked | inhibit; also recorded: efficiently inhibited; also recorded: blocked
